As usually defined, the IC50 is the concentration at which inhibition is half-maximal.

Molecules are shown by their SMILES. Read-outs that look alike come from different tables or passages of the source.

The test system of one test is NCI-H1581 cells. Kind of test: Cell proliferation assay on NCI-H1581 (Table 7). It counts as cell-based, human. The text has this: Test method: adding the appropriate volume of whole medium and the cells was suspended.
The next test concerns the target FGFR1 (Homo sapiens (Human), UniProt P11362). Kind of test: Kinase assay Method 1, mobility shift assay.
Where [1] appears, read: Homo sapiens, NCI-H1581, CellTiter 96 AQueous (144 hrs) or CellTiter Glo (96 hrs), class symbols, read-out: IC50(nM) value of compounds on NCI-H1581 cells.
The mark [2] stands for this setting: read-out: IC50(nM) value of compounds FGFR1, mobility shift assay, ATP at Km, class symbols.

Sequence of FGFR1 (P11362 22-822): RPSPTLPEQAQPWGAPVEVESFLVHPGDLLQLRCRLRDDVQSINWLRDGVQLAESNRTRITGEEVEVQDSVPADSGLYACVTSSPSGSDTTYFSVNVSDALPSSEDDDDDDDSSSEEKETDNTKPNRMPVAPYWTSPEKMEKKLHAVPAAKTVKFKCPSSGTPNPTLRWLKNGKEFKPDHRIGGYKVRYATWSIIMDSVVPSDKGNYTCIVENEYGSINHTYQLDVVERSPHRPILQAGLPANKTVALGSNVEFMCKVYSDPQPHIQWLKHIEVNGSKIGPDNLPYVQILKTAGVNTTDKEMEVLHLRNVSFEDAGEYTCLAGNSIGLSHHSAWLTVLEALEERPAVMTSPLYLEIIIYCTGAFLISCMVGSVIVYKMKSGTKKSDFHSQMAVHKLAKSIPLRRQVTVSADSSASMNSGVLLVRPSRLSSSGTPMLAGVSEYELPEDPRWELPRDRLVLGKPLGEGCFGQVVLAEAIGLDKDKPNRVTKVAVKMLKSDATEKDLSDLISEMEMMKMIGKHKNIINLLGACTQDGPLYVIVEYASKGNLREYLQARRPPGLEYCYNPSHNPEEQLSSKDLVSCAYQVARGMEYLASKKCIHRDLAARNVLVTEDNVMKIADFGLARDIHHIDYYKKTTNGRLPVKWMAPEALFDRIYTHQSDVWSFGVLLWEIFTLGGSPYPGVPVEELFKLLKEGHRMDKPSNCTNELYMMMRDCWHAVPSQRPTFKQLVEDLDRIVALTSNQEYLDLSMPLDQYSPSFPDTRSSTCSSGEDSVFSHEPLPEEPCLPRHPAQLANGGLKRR
Protocol for FGFR1: Method 1: The inhibitory activity of some compounds of the present disclosure against FGFR1, FGFR2, FGFR3, FGFR4, KDR was tested by mobility shift assay (concentration of ATP is Km value).
Preparing of compounds: dilute test compounds to specific concentration using 100% DMSO

Turning to `COc1cc(OC)c(Cl)c(-c2cc3cnc(Nc4ccc(N5CCN(C(C)C)CC5)cc4)nc3n3cnnc23)c1` [Compound 11, 6-(2-chloro-3,5-dimethoxyphenyl)-N-(4-(4-isopropylpiperazin-1-yl)phenyl)-[1,2,4]triazolo[4′,3′:1,6]pyrido[2,3-d]pyrimidin-2-amine], the IC50 in the test on NCI-H1581 cells (setting [1]) and on FGFR1 (setting [2]) was below 1 nM in each case.

In the case of `COc1cc(OC)c(Cl)c(-c2cc3cnc(Nc4ccc(N5CCN(C6COC6)CC5)cc4)nc3n3cnnc23)c1` [Compound 13, 6-(2-chloro-3,5-dimethoxyphenyl)-N-(4-(4-(oxetan-3-yl)piperazin-1-yl)phenyl)-[1,2,4]triazolo[4′,3′:1,6]pyrido[2,3-d]pyrimidin-2-amine], the figures for the concentration for half-maximal inhibition (IC50) in the test with NCI-H1581 cells (setting [1]) and at FGFR1 (setting [2]) were 1 to 10 nM and below 1 nM, respectively. On the same counts, the results for `COc1cc(OC)c(Cl)c(-c2cc3cnc(Nc4ccc(N5CCC(N(C)C)CC5)cc4)nc3n3cnnc23)c1` [Compound 14, 6-(2-chloro-3,5-dimethoxyphenyl)-N-(4-(4-(dimethylamino)piperidin-1-yl)phenyl)[1,2,4]triazolo[4′,3′:1,6]pyrido[2,3-d]pyrimidin-2-amine] are below 1 nM and below 1 nM. On the same counts, the results for `COc1cc(OC)c(Cl)c(-c2cc3cnc(Nc4ccc(N5CCN(C)CC5)cc4)nc3n3cnnc23)c1` [Compound 15, 6-(2-chloro-3,5-dimethoxyphenyl)-N-(4-(4-methylpiperazin-1-yl)phenyl)-[1,2,4]triazolo[4′,3′:1,6]pyrido[2,3-d]pyrimidin-2-amine] are below 1 nM and below 1 nM. On the same counts, the results for `COc1cc(OC)c(Cl)c(-c2cc3cnc(Nc4ccc(N5CCN(C)CC5)cn4)nc3n3cnnc23)c1` [Compound 16, 6-(2-chloro-3,5-dimethoxyphenyl)-N-(5-(4-methylpiperazin-1-yl)pyridin-2-yl)-[1,2,4]triazolo[4′,3′:1,6]pyrido[2,3-d]pyrimidin-2-amine] are 10 to 100 nM and above 10 nM. Take `CCN1CCN(Cc2ccc(Nc3ncc4cc(-c5cc(OC)cc(OC)c5Cl)c5nncn5c4n3)nc2)CC1` [Compound 17, 6-(2-chloro-3,5-dimethoxyphenyl)-N-(5-((4-ethylpiperazin-1-yl)methyl)pyridin-2-yl)-[1,2,4]triazolo[4′,3′:1,6]pyrido[2,3-d]pyrimidin-2-amine]: the IC50 in the test with NCI-H1581 cells (setting [1]) is 10 to 100 nM; on FGFR1 (setting [2]), above 10 nM. `COc1cc(OC)c(Cl)c(-c2cc3cnc(Nc4ccc(N(C)CCN(C)C)cc4)nc3n3cnnc23)c1` [Compound 21]: the IC50 is 1 to 10 nM in the test on NCI-H1581 cells (CellTiter 96 AQueous (144 hrs) or CellTiter Glo (96 hrs), class symbols, read-out: IC50(nM) value of compounds on NCI-H1581 cells) and below 1 nM at FGFR1 (setting [2]). Regarding `COc1cc(OC)c(Cl)c(-c2cc3cnc(Nc4ccc(N5CC6CCC(C5)N6C)cc4)nc3n3cnnc23)c1` [Compound 23, 6-(2-chloro-3,5-dimethoxyphenyl)-N-(4-(8-methyl-3,8-diazabicyclo[3.2.1]octan-3-yl)phenyl)-[1,2,4]triazolo[4′,3′:1,6]pyrido[2,3-d]pyrimidin-2-amine], the IC50 in the test with NCI-H1581 cells (setting [1]) and at FGFR1 was below 1 nM in each case. `COc1cc(OC)c(Cl)c(-c2cc3cnc(Nc4ccc(N5CCN(C)C(C)(C)C5)cc4)nc3n3cnnc23)c1` [Compound 26, 6-(2-chloro-3,5-dimethoxyphenyl)-N-(4-(3,3,4-trimethylpiperazin-1-yl)phenyl)-[1,2,4]triazolo[4′,3′:1,6]pyrido[2,3-d]pyrimidin-2-amine]: the IC50 with NCI-H1581 cells (setting [1]) and on FGFR1 (setting [2]) was below 1 nM each time. In the case of `COc1cc(OC)c(Cl)c(-c2cc3cnc(Nc4ccc(N5CCN(CCO)CC5)cc4)nc3n3cnnc23)c1` [Compound 32, 2-(4-(4-((6-(2-chloro-3,5-dimethoxyphenyl)-[1,2,4]triazolo[4′,3′:1,6]pyrido[2,3-d]pyrimidin-2-yl)amino)phenyl)piperazin-1-yl)ethan-1-ol], the IC50 in the test with NCI-H1581 cells (setting [1]) was 1 to 10 nM; at FGFR1 (setting [2]), below 1 nM. On the same counts, the results for `COc1cc(OC)c(Cl)c(-c2cc3cnc(Nc4ccc(C5CCNCC5)c(C)c4)nc3n3cnnc23)c1` [Compound 52, 6-(2-chloro-3,5-dimethoxyphenyl)-N-(3-methyl-4-(piperidin-4-yl)phenyl)-[1,2,4]triazolo[4′,3′:1,6]pyrido[2,3-d]pyrimidin-2-amine] are below 1 nM and below 1 nM. As to `COc1cc(OC)c(Cl)c(-c2cc3cnc(Nc4ccc(C(=O)N5C[C@@H](C)N[C@@H](C)C5)cc4)nc3n3cnnc23)c1Cl` [Compound 60, (4-((6-(2,6-dichloro-3,5-dimethoxyphenyl)-[1,2,4]triazolo[4′,3′:1,6]pyrido[2,3-d]pyrimidin-2-yl)amino)phenyl)((3S,5R)-3,5-dimethylpiperazin-1-yl)methanone], the IC50 in the test on NCI-H1581 cells (setting [1]) was below 1 nM. For the compound `CCN1CCN(c2ccc(Nc3ncc4cc(-c5c(Cl)c(OC)cc(OC)c5Cl)c5nncn5c4n3)cc2)CC1` [Compound 61, 6-(2,6-dichloro-3,5-dimethoxyphenyl)-N-(4-(4-ethylpiperazin-1-yl)phenyl)-[1,2,4]triazolo[4′,3′:1,6]pyrido[2,3-d]pyrimidin-2-amine], the IC50 in the test on NCI-H1581 cells (setting [1]) and at FGFR1 (setting [2]) was below 1 nM each time. For the compound `CCN1CCC(c2ccc(Nc3ncc4cc(-c5cc6[nH]c(C)nc6cc5Cl)c5nncn5c4n3)cc2)CC1` [Compound 79, 6-(5-chloro-2-methyl-1H-benzo[d]imidazol-6-yl)-N-(4-(1-ethylpiperidin-4-yl)phenyl)-[1,2,4]triazolo[4′,3′:1,6]pyrido[2,3-d]pyrimidin-2-amine], the 50% inhibitory concentration (IC50) in the test on NCI-H1581 cells (Homo sapiens, NCI-H1581, read-out: IC50(nM) value of compounds on NCI-H1581 cells) worked out at 11.5 nM. For `Cc1nc2ccc(-c3cc4cnc(Nc5ccc(N6CCOCC6)cc5)nc4n4cnnc34)c(Cl)c2[nH]1` [Compound 83, 6-(7-chloro-2-methyl-1H-benzo[d]imidazol-6-yl)-N-(4-morpholinophenyl)-[1,2,4]triazolo[4′,3′:1,6]pyrido[2,3-d]pyrimidin-2-amine], the IC50 in the test with NCI-H1581 cells (setting [1]) is above 100 nM.

With `C=CC(=O)Nc1ccc(Cc2nnc3c(-c4cc(OC)cc(OC)c4Cl)cc4cnc(NCCN5CCOCC5)nc4n23)cc1` [Compound 86, N-(4-((6-(2-chloro-3,5-dimethoxyphenyl)-2-((2-morpholinoethyl)amino)-[1,2,4]triazolo[4′,3′:1,6]pyrido[2,3-d]pyrimidin-9-yl)methyl)phenyl)acrylamide], the results for the IC50 with NCI-H1581 cells (setting [1]) and on FGFR1 (setting [2]) were 1 to 10 nM and above 10 nM, respectively. On to `CCC(=O)Nc1ccc(Cc2nnc3c(-c4cc(OC)cc(OC)c4Cl)cc4cnc(NCCN5CCOCC5)nc4n23)cc1` [Compound 96, N-(4-((6-(2-chloro-3,5-dimethoxyphenyl)-2-((2-morpholinoethyl)amino)-[1,2,4]triazolo[4′,3′:1,6]pyrido[2,3-d]pyrimidin-9-yl)methyl)phenyl)propionamide], for which the IC50 with NCI-H1581 cells (setting [1]) and on FGFR1 (setting [2]) was above 100 nM each time. Take `CC[N+]1([O-])CCN(c2ccc(Nc3ncc4cc(-c5cc(OC)cc(OC)c5Cl)c5nncn5c4n3)cc2)CC1` [Compound 99, 4-(4-((6-(2-chloro-3,5-dimethoxyphenyl)-[1,2,4]triazolo[4′,3′:1,6]pyrido[2,3-d]pyrimidin-2-yl)amino)phenyl)-1-ethylpiperazine 1-oxide]: the IC50 in the test on NCI-H1581 cells (setting [1]) is 1 to 10 nM; on FGFR1 (setting [2]), above 10 nM.

For the compound `C=CC(=O)N1CCN(CCc2nc3c(-c4cc(OC)cc(OC)c4Cl)cc4cnc(NC)nc4n3n2)CC1` [Compound 116, 1-(4-(2-(4-(2-chloro-3,5-dimethoxyphenyl)-8-(methylamino)-[1,2,4]triazolo[1′,5′:1,6]pyrido[2,3-d]pyrimidin-2-yl)ethyl)piperazin-1-yl)prop-2-en-1-one], the IC50 in the test on NCI-H1581 cells (setting [1]) is 10 to 100 nM.

As to `C=CC(=O)N1CCN(Cc2nc3c(-c4cc(OC)cc(OC)c4Cl)cc4cnc(NC)nc4n3n2)CC1` [Compound 117, 1-(4-((4-(2-chloro-3,5-dimethoxyphenyl)-8-(methylamino)-[1,2,4]triazolo[1′,5′:1,6]pyrido[2,3-d]pyrimidin-2-yl)methyl)piperazin-1-yl)prop-2-en-1-one], the IC50 in the test with NCI-H1581 cells (setting [1]) lay in the range of 10 to 100 nM. Still for that read-out and setting: the figure for `C=CC(=O)N1CCN(CCc2nc3c(-c4c(Cl)c(OC)cc(OC)c4Cl)cc4cnc(NC)nc4n3n2)CC1` [Compound 124, 1-(4-(2-(4-(2,6-dichloro-3,5-dimethoxyphenyl)-8-(methylamino)-[1,2,4]triazolo[1′,5′:1,6]pyrido[2,3-d]pyrimidin-2-yl)ethyl)piperazin-1-yl)prop-2-en-1-one] is 1 to 10 nM; for `C=CC(=O)N1C[C@@H](C)N(CCCc2nc3c(-c4c(Cl)c(OC)cc(OC)c4Cl)cc4cnc(NC)nc4n3n2)[C@@H](C)C1` [Compound 131, 1-((3S,5R)-4-(3-(4-(2,6-dichloro-3,5-dimethoxyphenyl)-8-(methylamino)-[1,2,4]triazolo[1′,5′:1,6]pyrido[2,3-d]pyrimidin-2-yl)propyl)-3,5-dimethylpiperazin-1-yl)prop-2-en-1-one] it is 10 to 100 nM. With `C=CC(=O)N1CCN(CCCc2nc3c(-c4c(Cl)c(OC)cc(OC)c4Cl)cc4cnc(NCC(F)(F)F)nc4n3n2)CC1` [Compound 137, 1-(4-(3-(4-(2,6-dichloro-3,5-dimethoxyphenyl)-8-((2,2,2-trifluoroethyl)amino)-[1,2,4]triazolo[1′,5′:1,6]pyrido[2,3-d]pyrimidin-2-yl)propyl)piperazin-1-yl)prop-2-en-1-one], the IC50 in the test with NCI-H1581 cells (setting [1]) lay in the range of 1 to 10 nM. Still for that read-out and setting: in the case of `CNc1ncc2cc(-c3c(Cl)c(OC)cc(OC)c3Cl)c3nc(CCCN4CCN(C(=O)C(C#N)=CC(C)(C)C)CC4)nn3c2n1` [Compound 148, 2-(4-(3-(4-(2,6-dichloro-3,5-dimethoxyphenyl)-8-(methylamino)-[1,2,4]triazolo[1′,5′:1,6]pyrido[2,3-d]pyrimidin-2-yl)propyl)piperazine-1-carbonyl)-4,4-dimethylpent-2-enenitrile] it was above 100 nM.

The record behind these values is US11365196B2, “FGFR inhibitor and application thereof” (Betta Pharmaceuticals Co., Ltd., priority 2017, dated 2022).
